We go through eight molecules from paper PMC5286460 (ACS Omega, 2017).

The subject of one series is healthy CD-1 mice. The series is described as follows: In vivo biodistribution imaging in healthy mice. Set-up: species or system mouse. To be noted: for pancreas specificity / accumulation: systemic administration.
Series [1] has as its system Capan-1 cells. The series is described as follows: Cellular uptake in Capan-1 cells. The format is cell-based, human. To be noted: within 30 min of application.
In series [2] the test system is Capan-1 cells. The experiment in a line: Subcellular colocalization, live cell imaging. The format is cell-based, human. To be noted: 0.5 μM, 1 h incubation.
The nature of series [3]: Cell viability by Cell Titer-Blue assay. The format is cell-based. To be noted: human, Capan-1 cells.
The nature of series [4]: UV–vis absorption and fluorescence spectroscopy. Particulars: 10% DMSO; for λmax abs: 10-15 μM. Format: physicochemical.
For series [5], the system named is pancreas tissue derived from healthy and PDAC mice. The experiment in a line: Ex vivo staining of pancreas tissue from healthy and PDAC mice. To be noted: PDAC mouse pancreas tissue slides.
For series [6], the system named is genetically modified PDAC mice. The experiment in a line: In vivo biodistribution and ex vivo pathology in PDAC tumor-bearing mice. The arrangement: species or system mouse. To be noted: 100 nmol systemic, 1.5 h.
Where [7] appears, read: acidic solution pH 1.9, 12.5 mM HCl.

Entries after “also recorded” stand apart in the source; their conditions may differ.

In the case of `COC(=O)c1ccccc1C1=c2cc3c4c(c2Oc2c1ccc1cccc(N)c21)CCC[N+]=4CCC3.[Cl-]` [Compound 13], in the series with healthy CD-1 mice, the “pancreas specificity / accumulation” value is reported as “diminished pancreas accumulation”. The relative cellular uptake result in the series on Capan-1 cells [1] is recorded as “greatest uptake”. The subcellular localization result in the series with Capan-1 cells [2] is “extensive accumulation in the mitochondria”. In addition, in series [3], the midpoint of inhibition, the IC50 at 24 h, lay at 26.1 µM. Also, in series [4] (pH 7.4 phosphate buffer), the Stokes shift amounted to 139 nm, the brightness is listed as 85, the λmax em came out at 740 nm and the “φ (quantum yield)” value came to 0.66%. This molecule also had a λmax abs in series [4] (pH 7.4 phosphate buffer) of 601 nm.

`CN(C)c1ccc2nc3ccc(=[N+](C)C)cc-3sc2c1` [MB, methylene blue, reference compound]: in the series on healthy CD-1 mice, the “pancreas specificity / accumulation” value is “poor penetration into normal pancreas tissue; also recorded: diminished pancreas accumulation”.

Regarding `COC(=O)c1ccccc1-c1c2ccc(=[N+](C)C)cc-2oc2c1ccc1cccc(OC)c12.[Cl-]` [Compound 6], in series [4] (pH 7.4 phosphate buffer), the Stokes shift is reported as 38 nm, the brightness is 2094, the λmax em was 606 nm and the “φ (quantum yield)” value was 9.32%. Also, the λmax abs in series [4] (pH 7.4 phosphate buffer) was found to be 568 nm.

Take `COC(=O)c1ccccc1C1=c2cc3c4c(c2Oc2c1ccc1cccc(O)c21)CCC[N+]=4CCC3.[Cl-]` [Compound 11]: in series [4] (setting [7]), the Stokes shift is 39 nm, the brightness worked out at 2314, the λmax em was 624 nm and the “φ (quantum yield)” value is given as 15.3%. Also, the λmax abs in series [4] (setting [7]) is reported as 585 nm.

With `COC(=O)c1ccccc1-c1c2ccc(=N)cc-2oc2c1ccc1cccc(O)c12.Cl` [Compound 3], in series [4] (setting [7]), the Stokes shift is 62 nm, the brightness is 226, the λmax em is on record as 604 nm and the “φ (quantum yield)” value is listed as 1.14%. In series [4] (setting [7]), this molecule came in with a λmax abs of 542 nm.

`COC(=O)c1ccccc1-c1c2ccc(=N)cc-2oc2c1ccc1cccc(N)c12.Cl` [Compound 9]: in series [4] (pH 7.4 phosphate buffer), the Stokes shift amounted to 184 nm, the brightness is 25, the λmax em is listed as 760 nm and the “φ (quantum yield)” value is recorded as 0.18%. The λmax abs in series [4] (pH 7.4 phosphate buffer) is recorded as 576 nm.

In the case of `COC(=O)c1ccccc1C1=c2cc3c4c(c2Oc2c1ccc1cccc(OC)c21)CCC[N+]=4CCC3.[Cl-]` [Compound 12], in the series on healthy CD-1 mice (100 nmol systemic (MB 120 nmol)), the “uptake in normal pancreas tissue as compared to MB” value is 4 fold. Moreover, in the series with healthy CD-1 mice (4 h time point), the “fluorescence SBR in the pancreas vs surrounding organs” value was “highest and most persistent fluorescence SBR in the pancreas”. Also, the “pancreas specificity / accumulation” value in the series on healthy CD-1 mice is “improved pancreas specificity”. In addition, the “ex vivo staining pattern in cancerous tissue” value in series [5] is listed as “localized in the PDAC-associated ductal epithelial cells”. Besides, in the series on Capan-1 cells [2], the subcellular localization entry was “extensive accumulation in the mitochondria”. Besides, in series [6], the “PDAC-specific fluorescence / accumulation” value is given as “Significantly more fluorescence; also recorded: significantly higher than that in the surrounding tissues”. In addition, in series [3], the IC50 at 24 h was 17.8 µM. For the same molecule, in series [4] (pH 7.4 phosphate buffer), the Stokes shift was determined as 40 nm, the brightness is listed as 2022, the λmax em turned out to be 622 nm and the “φ (quantum yield)” value is listed as 11.38%. This molecule also had a λmax abs in series [4] (pH 7.4 phosphate buffer) of 582 nm.

`COC(=O)c1ccccc1-c1c2ccc(=O)cc-2oc2c1ccc1cccc(N(C)C)c12` [Compound 8] registered a λmax em in series [4] (basic solution pH 12.1, 12.5 mM NaOH) of 530 nm.
